Target: T1, DmEcR + LmUSP (Drosophila melanogaster, UniProt P34021)
T1 sequence (P34021 342-878): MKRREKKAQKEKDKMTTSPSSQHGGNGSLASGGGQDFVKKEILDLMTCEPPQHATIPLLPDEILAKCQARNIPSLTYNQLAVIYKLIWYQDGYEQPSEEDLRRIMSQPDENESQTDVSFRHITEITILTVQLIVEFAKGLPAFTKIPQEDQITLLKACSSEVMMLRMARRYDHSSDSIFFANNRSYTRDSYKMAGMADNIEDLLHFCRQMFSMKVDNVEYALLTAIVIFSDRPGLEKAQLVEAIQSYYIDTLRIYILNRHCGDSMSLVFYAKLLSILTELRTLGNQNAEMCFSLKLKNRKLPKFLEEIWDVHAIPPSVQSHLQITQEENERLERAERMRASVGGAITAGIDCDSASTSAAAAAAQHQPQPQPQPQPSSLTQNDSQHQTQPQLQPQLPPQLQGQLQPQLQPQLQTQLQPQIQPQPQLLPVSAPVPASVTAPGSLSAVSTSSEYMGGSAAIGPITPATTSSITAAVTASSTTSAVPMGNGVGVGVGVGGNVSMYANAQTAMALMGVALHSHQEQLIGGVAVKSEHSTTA
Assay: not given
Conditions: 10 μM; DmEcR + LmUSP in 3T3 cells; reporter assayed 48 h after ligand

SMILES	Fold Induction (10 μM) [fold]
C[C@H]1C[C@@H](Nc2ccc(F)cc2)c2cc(F)ccc2N1C(=O)c1ccc(F)cc1 (relative stereo) [Compound I-8]	2
C[C@H]1C[C@H](Nc2ccc(F)cc2)c2cc(F)ccc2N1C(=O)c1ccc(F)cc1 (relative stereo) [Compound I-9]	9
C[C@H]1C[C@@H](Nc2ccc(F)cc2)c2cc(F)ccc2N1C(=O)c1ccccc1 (relative stereo) [Compound I-10]	1
C[C@H]1C[C@H](Nc2ccc(F)cc2)c2cc(F)ccc2N1C(=O)c1ccccc1 (relative stereo) [Compound I-11]	5

Same assay, conditions: 100 μM; DmEcR + LmUSP in 3T3 cells; reporter assayed 48 h after ligand

SMILES	Fold Induction (100 μM) [fold]
C[C@H]1C[C@@H](Nc2ccc(F)cc2)c2cc(F)ccc2N1C(=O)c1ccc(F)cc1 (relative stereo) [Compound I-8]	7
C[C@H]1C[C@H](Nc2ccc(F)cc2)c2cc(F)ccc2N1C(=O)c1ccc(F)cc1 (relative stereo) [Compound I-9]	2
C[C@H]1C[C@@H](Nc2ccc(F)cc2)c2cc(F)ccc2N1C(=O)c1ccccc1 (relative stereo) [Compound I-10]	1
C[C@H]1C[C@H](Nc2ccc(F)cc2)c2cc(F)ccc2N1C(=O)c1ccccc1 (relative stereo) [Compound I-11]	3

System: CfEcR + LmUSP
Assay: not given
Conditions: CfEcR + LmUSP in 3T3 cells, reporter assayed 48 h after ligand

SMILES	Fold Induction (10 μM) [fold]
C[C@H]1C[C@@H](Nc2ccc(F)cc2)c2cc(F)ccc2N1C(=O)c1ccc(F)cc1 (relative stereo) [Compound I-8]	3
C[C@H]1C[C@H](Nc2ccc(F)cc2)c2cc(F)ccc2N1C(=O)c1ccc(F)cc1 (relative stereo) [Compound I-9]	3
C[C@H]1C[C@@H](Nc2ccc(F)cc2)c2cc(F)ccc2N1C(=O)c1ccccc1 (relative stereo) [Compound I-10]	1
C[C@H]1C[C@H](Nc2ccc(F)cc2)c2cc(F)ccc2N1C(=O)c1ccccc1 (relative stereo) [Compound I-11]	1

System: GAL4 DBD-CfEcR(DEF)/VP16AD-MmRXRE
Assay: not given
Conditions: CHO 13B3 clone, 48 h, average of two wells
Text: GAL4 DBD-CfEcR(DEF)/VP16AD-MmRXRE: The wild-type D, E, and F domains from spruce budworm Choristoneura fumiferana EcR (“CfEcR-DEF”; SEQ ID NO: 1) were fused to a GAL4 DNA binding domain (“Gal4DBD1-147”; nucleotides 31 to 471 of SEQ ID NO: 2) and placed under the control of the SV40e promoter of pM vector (PT3119-5, Clontech, Palo Alto, Calif.). The D and E domains from Mus Musculus RXR (“MmRXR-DE”; SEQ ID NO: 22) were fused to the transactivation domain from VP16 (“VP16AD”; SEQ ID NO: 5) and placed under the control of the SV40e promoter of the pVP16 vector (PT3127-5, Clontech, Palo Alto, Calif.).
CHO cells were transiently transfected with transcription cassettes for GAL4 DBD-CfEcR(DEF) and for VP16AD-MmRXRE controlled by SV40e promoters. Stably transfected cells were selected using Hygromycin. Individually isolated CHO cell clones were transiently transfected with a GAL4 RE-luciferase reporter (pFR-Luc, Stratagene, La Jolla, Calif.). The 13B3 clone was selected using Zeocin.
Cells were trypsinized and diluted to a concentration of 2.5×10^4 cells mL. 100 μL of cell suspension was placed in each well of a 96 well plate and incubated at 37° C. under 5% CO2 for 24 h. Ligand stock solutions were prepared in DMSO and diluted 300 fold for all treatments.
(§1) Luciferase reporter gene expression was measured 48 h after cell treatment using Bright-Glo™ Luciferase Assay System from Promega (E2650). Luminescence was detected at room temperature using a Dynex MLX microtiter plate luminometer.
(§2) Each assay was conducted in two separate wells, and the two values were averaged. Fold inductions were calculated by dividing relative light units (“RLU”) in ligand treated cells with RLU in DMSO treated cells.

SMILES	Fold Induction Average, 13B3V1 Assay 33 μM [fold]
Cc1ccc(NC2CC(C)N(C(=O)c3cccc([N+](=O)[O-])c3)c3ccc(C)cc32)cc1 (stereo not shown) [Compound I-154]	4
CC1CC(N(C(=O)C2CC2)c2ccccc2)c2ccccc2N1C(=O)C1CC1 (stereo not shown) [Compound I-155]	1
CC1CC(Nc2ccccc2)c2ccccc2N1C(=O)c1cccc([N+](=O)[O-])c1 (stereo not shown) [Compound I-158]	118
CC1CC(Nc2ccccc2)c2ccccc2N1C(=O)C=Cc1ccccc1 (stereo not shown) [Compound I-163]	26
CC1CC(N(C(=O)c2cccc(Br)c2)c2ccccc2)c2ccccc2N1C(=O)c1cccc(O)c1 (stereo not shown) [Compound I-166]	2
CCCc1ccc(C(=O)N2c3ccccc3C(Nc3ccccc3)CC2C)cc1 (stereo not shown) [Compound I-173]	1
CC1CC(Nc2ccccc2)c2ccccc2N1C(=O)COc1ccc(Cl)cc1 (stereo not shown) [Compound I-180]	1

Target: T2, Gal4DBD/AaEcR (DEF) (Aedes aegypti, UniProt P49880)
T2 construct: The wildtype D, E, and F domains from mosquito Aedes aegypti EcR; expressed in transfected cells; host or cells: 3T3 cells
Assay: cell-based
Format: cell-based
Conditions: 33 μM; 3T3 cells; 48 h; average of two wells
Method in brief: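 Single-dose ligand testing at 33 μM, applied in serum medium after 4 h transfection. Host was 3T3 cells carrying Gal4DBD/AaEcR (DEF) plus a 5× GAL4 RE-driven firefly luciferase reporter (pFRLuc).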

T2 sequence (P28704 286-520 A311G/G315S/G445S/I449V): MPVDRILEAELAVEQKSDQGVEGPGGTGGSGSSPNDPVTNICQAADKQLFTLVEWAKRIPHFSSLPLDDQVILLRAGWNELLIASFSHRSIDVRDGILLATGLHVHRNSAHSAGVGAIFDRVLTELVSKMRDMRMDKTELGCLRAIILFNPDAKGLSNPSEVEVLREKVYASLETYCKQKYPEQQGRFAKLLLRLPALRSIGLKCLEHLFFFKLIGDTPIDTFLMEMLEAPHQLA
T2 sequence (P49880 405-776): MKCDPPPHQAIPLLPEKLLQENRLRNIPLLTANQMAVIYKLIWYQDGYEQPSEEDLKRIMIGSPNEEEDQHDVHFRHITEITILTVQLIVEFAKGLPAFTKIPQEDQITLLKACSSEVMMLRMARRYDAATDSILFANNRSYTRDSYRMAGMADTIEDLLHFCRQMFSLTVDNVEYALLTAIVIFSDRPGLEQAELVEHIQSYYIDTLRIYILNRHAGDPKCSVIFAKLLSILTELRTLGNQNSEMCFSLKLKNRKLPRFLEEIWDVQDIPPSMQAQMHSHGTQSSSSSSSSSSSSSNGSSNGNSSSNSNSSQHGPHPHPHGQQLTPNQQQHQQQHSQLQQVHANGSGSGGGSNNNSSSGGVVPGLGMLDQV

SMILES	Fold Induction Average, AA_3T3V1 Assay 33 μM [fold]
C[C@H]1C[C@@H](Nc2ccc(F)cc2)c2cc(F)ccc2N1C(=O)c1ccc(F)cc1 (relative stereo) [Compound I-8]	153
C[C@H]1C[C@H](Nc2ccc(F)cc2)c2cc(F)ccc2N1C(=O)c1ccc(F)cc1 (relative stereo) [Compound I-9]	131
C[C@H]1C[C@@H](Nc2ccc(F)cc2)c2cc(F)ccc2N1C(=O)c1ccccc1 (relative stereo) [Compound I-10]	164
C[C@H]1C[C@H](Nc2ccc(F)cc2)c2cc(F)ccc2N1C(=O)c1ccccc1 (relative stereo) [Compound I-11]	387
COc1cccc(C(=O)N2c3ccc(C)cc3[C@@H](Nc3ccc(C)cc3)C[C@@H]2C)c1 (relative stereo) [Compound I-86]	2
COC(=O)c1ccc(C(=O)N2c3ccc(F)cc3C(Nc3ccc(F)cc3)CC2C)cc1 (stereo not shown) [Compound I-94]	798
CC1CC(Nc2ccccc2)c2ccccc2N1C(=O)c1ccno1 (stereo not shown) [Compound I-104]	347
Cc1ccc(NC2CC(C)N(C(=O)c3cccc([N+](=O)[O-])c3)c3ccc(C)cc32)cc1 (stereo not shown) [Compound I-154]	1
CC1CC(N(C(=O)C2CC2)c2ccccc2)c2ccccc2N1C(=O)C1CC1 (stereo not shown) [Compound I-155]	1
CC1CC(Nc2ccccc2)c2ccccc2N1C(=O)c1cccc([N+](=O)[O-])c1 (stereo not shown) [Compound I-158]	207
CC1CC(Nc2ccccc2)c2ccccc2N1C(=O)C=Cc1ccccc1 (stereo not shown) [Compound I-163]	4
CC1CC(N(C(=O)c2cccc(Br)c2)c2ccccc2)c2ccccc2N1C(=O)c1cccc(O)c1 (stereo not shown) [Compound I-166]	58
CCCc1ccc(C(=O)N2c3ccccc3C(Nc3ccccc3)CC2C)cc1 (stereo not shown) [Compound I-173]	172
CC1CC(Nc2ccccc2)c2ccccc2N1C(=O)COc1ccc(Cl)cc1 (stereo not shown) [Compound I-180]	9
Cc1ccccc1NC1CC(C)N(C(=O)c2ccccc2)c2c(C)cccc21 (stereo not shown) [Compound I-184]	1
CCNC(=O)N1c2ccccc2C(Nc2ccccc2)CC1C (stereo not shown) [Compound I-210]	12

System: GAL4 DBD (1-147)-CfEcR(DEF)/VP16AD-βRXREF-LmUSPEF
Assay: not given
Conditions: CHO 27-63 clone, 48 h, average of two wells
Text: GAL4 DBD (1-147)-CfEcR(DEF)/VP16AD-βRXREF-LmUSPEF: The wild-type D, E, and F domains from spruce budworm Choristoneura fumiferana EcR (“CfEcR-DEF”; SEQ ID NO: 1) were fused to a GAL4 DNA binding domain (“Gal4DBD1-147”; nucleotides 31 to 471 of SEQ ID NO: 2) and placed under the control of a phosphoglycerate kinase promoter (“PGK”; SEQ ID NO: 19). Helices 1 through 8 of the EF domains from Homo sapiens RXRβ and helices 9 through 12 of the EF domains of Locusta migratoria Ultraspiracle Protein (“HsRXRβ-EF-LmUSP-EF”; SEQ ID NO: 4) were fused to the transactivation domain from VP16 (“VP16AD”; SEQ ID NO: 5) and placed under the control of an elongation factor-1α promoter (“EF-1α”; SEQ ID NO: 20). Five consensus GAL4 response element binding sites (“5× GAL4RE”; comprising 5 copies of a GAL4RE comprising SEQ ID NO: 7) were fused to a synthetic TATA minimal promoter (SEQ ID NO: 21) and placed upstream of the luciferase reporter gene (SEQ ID NO: 9).
CHO cells were transiently transfected with transcription cassettes for GAL4 DBD (1-147) CfEcR(DEF) and for VP16AD βRXREF-LmUSPEF controlled by ubiquitously active cellular promoters (PGK and EF-1α, respectively) on a single plasmid. Stably transfected cells were selected by Zeocin resistance. Individually isolated CHO cell clones were transiently transfected with a GAL4 RE-luciferase reporter (pFR Luc). 27-63 clone was selected using Hygromycin.
Cells were trypsinized and diluted to a concentration of 2.5×10^4 cells mL. 100 μL of cell suspension was placed in each well of a 96 well plate and incubated at 37° C. under 5% CO2 for 24 h. Ligand stock solutions were prepared in DMSO and diluted 300 fold for all treatments. Dose response testing consisted of 8 concentrations ranging from 33 μM to 0.01 μM.
as §1, §2

SMILES	Fold Induction Average, 27-63V1 Assay 33 μM [fold]
COc1cccc(C(=O)N2c3ccc(C)cc3[C@@H](Nc3ccc(C)cc3)C[C@@H]2C)c1 (relative stereo) [Compound I-86]	1
COC(=O)c1ccc(C(=O)N2c3ccc(F)cc3C(Nc3ccc(F)cc3)CC2C)cc1 (stereo not shown) [Compound I-94]	32
CC1CC(Nc2ccccc2)c2ccccc2N1C(=O)c1ccno1 (stereo not shown) [Compound I-104]	1
Cc1ccccc1NC1CC(C)N(C(=O)c2ccccc2)c2c(C)cccc21 (stereo not shown) [Compound I-184]	1
CCNC(=O)N1c2ccccc2C(Nc2ccccc2)CC1C (stereo not shown) [Compound I-210]	1

Target: T3, Bombyx mori EcR (VP16-BmEcR, CVBE) (Bombyx mori, UniProt P49881)
T3 construct: expressed in transfected cells
T3 sequence (P49881 86-606): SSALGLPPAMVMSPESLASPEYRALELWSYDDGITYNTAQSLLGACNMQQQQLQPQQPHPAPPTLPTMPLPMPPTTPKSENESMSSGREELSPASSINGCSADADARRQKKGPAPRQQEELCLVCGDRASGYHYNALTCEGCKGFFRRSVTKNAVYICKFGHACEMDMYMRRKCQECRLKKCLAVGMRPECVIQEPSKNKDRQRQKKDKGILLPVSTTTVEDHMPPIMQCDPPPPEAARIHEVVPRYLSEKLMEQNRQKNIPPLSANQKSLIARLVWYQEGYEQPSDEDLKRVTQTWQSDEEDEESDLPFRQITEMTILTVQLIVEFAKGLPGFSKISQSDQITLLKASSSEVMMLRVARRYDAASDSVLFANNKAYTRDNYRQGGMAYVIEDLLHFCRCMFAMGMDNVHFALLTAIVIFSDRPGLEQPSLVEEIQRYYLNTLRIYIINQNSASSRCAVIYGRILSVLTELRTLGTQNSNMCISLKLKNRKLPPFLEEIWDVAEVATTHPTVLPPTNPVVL
Assay: Z3 assay (HEK-293 clone Z3 with CVBE and 6x EcRE LacZ, β-galactosidase reporter)
Format: cell-based
Conditions: 48 h, average of two wells

SMILES	Fold Induction Average, Z3V1 Assay 33 μM [fold]
C[C@H]1C[C@H](Nc2ccc(F)cc2)c2cc(F)ccc2N1C(=O)c1ccc(F)cc1 (relative stereo) [Compound I-9]	16
C[C@H]1C[C@H](Nc2ccc(F)cc2)c2cc(F)ccc2N1C(=O)c1ccccc1 (relative stereo) [Compound I-11]	32
COc1cccc(C(=O)N2c3ccc(C)cc3[C@@H](Nc3ccc(C)cc3)C[C@@H]2C)c1 (relative stereo) [Compound I-86]	1
COC(=O)c1ccc(C(=O)N2c3ccc(F)cc3C(Nc3ccc(F)cc3)CC2C)cc1 (stereo not shown) [Compound I-94]	48
CC1CC(Nc2ccccc2)c2ccccc2N1C(=O)c1ccno1 (stereo not shown) [Compound I-104]	1
Cc1ccc(NC2CC(C)N(C(=O)c3cccc([N+](=O)[O-])c3)c3ccc(C)cc32)cc1 (stereo not shown) [Compound I-154]	1
CC1CC(N(C(=O)C2CC2)c2ccccc2)c2ccccc2N1C(=O)C1CC1 (stereo not shown) [Compound I-155]	1
CC1CC(Nc2ccccc2)c2ccccc2N1C(=O)c1cccc([N+](=O)[O-])c1 (stereo not shown) [Compound I-158]	18
CC1CC(Nc2ccccc2)c2ccccc2N1C(=O)C=Cc1ccccc1 (stereo not shown) [Compound I-163]	27
CC1CC(N(C(=O)c2cccc(Br)c2)c2ccccc2)c2ccccc2N1C(=O)c1cccc(O)c1 (stereo not shown) [Compound I-166]	1
CCCc1ccc(C(=O)N2c3ccccc3C(Nc3ccccc3)CC2C)cc1 (stereo not shown) [Compound I-173]	3
CC1CC(Nc2ccccc2)c2ccccc2N1C(=O)COc1ccc(Cl)cc1 (stereo not shown) [Compound I-180]	1
